Consider 6 compounds from ChEMBL document CHEMBL1151677, “Bicinchoninic acid protein assay in the determination of adriamycin cytotoxicity modulated by the MDR glycoprotein” (1996).

Experiment [1] can be described thus: Cytotoxicity against human MCF7/ADR cells assessed as ratio of drug concentration to 2 x drug ED50 at 0.53 uM after 6 days by BCA assay. The format is functional, NCI/ADR-RES.
The nature of experiment [2]: Cytotoxicity against human MCF7/ADR cells assessed as ratio of drug concentration to 2 x drug ED50 at 0.28 uM after 6 days by BCA assay. The format is functional, NCI/ADR-RES.
Experiment [3] in a line: Cytotoxicity against human MCF7/ADR cells assessed as ratio of drug concentration to 2 x drug ED50 at 1.07 uM after 6 days by BCA assay. The format is functional, NCI/ADR-RES.
In experiment [4] the test system is MCF/ADR. Description: Reversal of P-gp-mediated multidrug resistance in human MCF/ADR cells assessed as ratio of adriamycin ED50 without drug to adriamycin ED50 with drug at 0.28 uM after 6 days by BCA assay. The format is cell-based.
For experiment [5], the system named is MCF/ADR. The experiment is described as follows: Reversal of P-gp-mediated multidrug resistance in human MCF/ADR cells assessed as ratio of adriamycin ED50 without drug to adriamycin ED50 with drug at 1.07 uM after 6 days by BCA assay. The format is cell-based.
Experiment [6] relates to MCF/ADR. The experiment is described as follows: Reversal of P-gp-mediated multidrug resistance in human MCF/ADR cells assessed as ratio of adriamycin ED50 without drug to adriamycin ED50 with drug at 0.53 uM after 6 days by BCA assay. The format is cell-based.
Experiment [7] is described as follows: Cytotoxicity against human MCF7/ADR cells assessed as ratio of drug concentration to 2 x drug ED50 at 3.29 uM after 6 days by BCA assay. The format is functional, NCI/ADR-RES.
Experiment [8] in a line: Cytotoxicity against human MCF7/ADR cells assessed as ratio of drug concentration to 2 x drug ED50 at 1.64 uM after 6 days by BCA assay. The format is functional, NCI/ADR-RES.
Experiment [9] in a line: Cytotoxicity against human MCF7/ADR cells assessed as ratio of drug concentration to 2 x drug ED50 at 0.82 uM after 6 days by BCA assay. The format is functional, NCI/ADR-RES.
The subject of the next experiment is MCF. The experiment is described as follows: Reversal of P-gp-mediated multidrug resistance in human MCF cells assessed as enhancement in cytotoxicity of adriamycin. The format is cell-based.
Experiment [10] relates to MCF/ADR. The experiment is described as follows: Reversal of P-gp-mediated multidrug resistance in human MCF/ADR cells assessed as enhancement in cytotoxicity of adriamycin. The format is cell-based.
In experiment [11] the test system is MCF7. The experiment is described as follows: Cytotoxicity against human MCF7 cells after 6 days by BCA assay. The format is functional. The following applies: MCF7, 144 h, read-out: ED50 (the source's name).
The nature of experiment [12]: Cytotoxicity against human MCF7/ADR cells after 6 days by BCA assay. The format is functional. The note with it: NCI/ADR-RES, 144 h, read-out: ED50 (the source's name).
Experiment [13] in a line: Cytotoxicity against human MCF7/ADR cells after 6 days by coulter counted assay. The format is functional. The following applies: NCI/ADR-RES, 144 h, read-out: ED50 (the source's name).
Experiment [14] has as its system MCF7. Description: Cytotoxicity against human MCF7 cells after 6 days by coulter counted assay. The format is functional. The note with it: MCF7, 144 h, read-out: ED50 (the source's name).
Experiment [15] in a line: Cytotoxicity against human MCF7/ADR cells assessed as ratio of drug concentration to 2 x drug ED50 at 0.15 uM after 6 days by BCA assay. The format is functional, NCI/ADR-RES.
Experiment [16] can be described thus: Cytotoxicity against human MCF7/ADR cells assessed as ratio of drug concentration to 2 x drug ED50 at 1.23 uM after 6 days by BCA assay. The format is functional, NCI/ADR-RES.
Experiment [17] is described as follows: Cytotoxicity against human MCF7/ADR cells assessed as ratio of drug concentration to 2 x drug ED50 at 2.46 uM after 6 days by BCA assay. The format is functional, NCI/ADR-RES.
A short description of experiment [18]: Cytotoxicity against human MCF7/ADR cells assessed as ratio of drug concentration to 2 x drug ED50 at 0.30 uM after 6 days by BCA assay. The format is functional, NCI/ADR-RES.
Experiment [19] is described as follows: Displacement of N-(p-azido-[3-125I]salicyl)-N'-beta-aminoethylvindesine from P-glycoprotein at 12.4 uM.
The nature of experiment [20]: Cytotoxicity against human MCF7/ADR cells assessed as ratio of drug concentration to 2 x drug ED50 at 0.62 uM after 6 days by BCA assay. The format is functional, NCI/ADR-RES.

Each structure is given as a SMILES string. Values after ≈ are worked out from the molar mass of the structure shown. Active and inactive are the calls of the source. No cut-off for these calls is given here.

For the compound `CC[C@H]1CN2CC[C@H]1C[C@H]2[C@@H](Oc1cc(C)c2ccccc2n1)c1ccnc2ccc(OC)cc12`, the Ratio in experiment [1] is 0.06; in [2], 0.03; in [3] it was 0.11. Also, the Ratio ED50 in the experiment on MCF/ADR [4] worked out at 3; in the experiment on MCF/ADR [5], 18; with MCF/ADR [6], 6.

In the case of `COC(=O)[C@H]1[C@H]2C[C@H]3c4[nH]c5cc(OC)ccc5c4CCN3C[C@H]2C[C@@H](OC(=O)c2cc(OC)c(OC)c(OC)c2)[C@@H]1OC` [ISORESERPINE], the Ratio in experiment [7] is 0.17; in experiment [8] it was 0.09; in experiment [9] it was 0.04.

For the compound `COc1ccc(CCN(C)CCCC(C#N)(c2ccc(OC)c(OC)c2)C(C)C)cc1OC` (stereo not drawn), in the experiment on MCF, the result was inactive.

Turning to `C=C[C@H]1C[N+]2(Cc3ccccc3)CC[C@H]1C[C@H]2[C@H](O)c1ccnc2ccc(OC)cc12`, the result in the experiment on MCF and in the experiment on MCF/ADR [10] was inactive.

Turning to `COc1cccc2c1C(=O)c1c(O)c3c(c(O)c1C2=O)C[C@@](O)(C(=O)CO)C[C@@H]3O[C@H]1C[C@H](N)[C@H](O)[C@H](C)O1` [DOXORUBICIN], the EC50 in the experiment with MCF7 [11] worked out at 0.0018 µg/mL (≈ 0.00331 µM); in [12] it was 0.47 µg/mL (≈ 0.865 µM); in experiment [13], 2.7 µg/mL (≈ 4.97 µM); in the experiment with MCF7 [14] it was 0.0021 µg/mL (≈ 0.00386 µM). For the same compound, the outcome in the experiment with MCF was Active.

For the compound `COC(=O)[C@H]1[C@H]2C[C@@H]3c4[nH]c5cc(OC)ccc5c4CCN3C[C@H]2C[C@@H](OC(=O)c2cc(OC)c(OC)c(OC)c2)[C@@H]1OC` [RESERPINE], the Ratio in [15] is 0.05; in experiment [16], 0.04; in experiment [17], 0.08; in experiment [18], 0.009; in experiment [20] it was 0.02. This compound gave an Activity in experiment [19] of 79.2%.
